Assay results taken from ChEMBL document CHEMBL1201862, “PubChem BioAssay data set” (2004).
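Where inhibition never reached the appropriate level, the endpoint shown equals the highest concentration tested. Otherwise, values were interpolated linearly from a five-concentration, 48-hour dose response in 96-well plates. GI50: concentration for 50% inhibition of growth.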 Calls of active or inactive are those of the source. Cut-off read from the data, not from the text of the source: active = GI50 up to about 1.1 µM and inactive = higher.

Tests used:
Experiment in all cases: NCI tumour cell line growth inhibition, 48 h
[1] = system: NCI-H23
[2] = system: PC-3
[3] = system: A498
[4] = system: SK-MEL-5
[5] = system: ACHN
[6] = system: UACC-62
[7] = system: MDA-MB-231
[8] = system: SF-539
[9] = system: TK-10
[10] = system: SN12C
[11] = system: U-251
[12] = system: OVCAR-4
[13] = system: Hs-578T
[14] = system: SF-295
[15] = system: LOX IMVI
[16] = system: EKVX
[17] = system: HCT-116
[18] = system: M14
[19] = system: K562
[20] = system: SK-OV-3

Row | SMILES | GI50 [1] | GI50 [2] | GI50 [3] | GI50 [4] | GI50 [5] | GI50 [6] | GI50 [7] | GI50 [8] | GI50 [9] | GI50 [10] | GI50 [11] | GI50 [12] | GI50 [13] | GI50 [14] | GI50 [15] | GI50 [16] | GI50 [17] | GI50 [18] | GI50 [19] | GI50 [20]
1 | COc1cc2nc(-c3cccs3)nc(N3CCN(c4ccccc4C(F)(F)F)CC3)c2cc1OC | > 100 µM (inactive) | 79.3 µM (inactive) | > 100 µM (inactive) | 33.3 µM (inactive) | > 100 µM (inactive) | 76.7 µM (inactive) | > 100 µM (inactive) | 55.6 µM (inactive) | 45 µM (inactive) | > 100 µM (inactive) | > 100 µM (inactive) | > 100 µM (inactive) | 89.9 µM (inactive) | 51.2 µM (inactive) | > 100 µM (inactive) | 53.7 µM (inactive) | > 100 µM (inactive) | > 100 µM (inactive) | 83.6 µM (inactive) | > 100 µM (inactive)
2 | CC(=O)NC1C(OCc2ccccc2)OC(CO)C(O)C1OCC(=O)NC(C)C(=O)NC(CCC(=O)NCCCCNc1ccc([N+](=O)[O-])c2[nH]c3ccccc3c(=O)c12)C(N)=O (stereo unspecified) | > 100 µM (inactive) | > 100 µM (inactive) | > 100 µM (inactive) | – | 48.9 µM (inactive) | – | > 100 µM (inactive) | 49.3 µM (inactive) | 92.9 µM (inactive) | > 100 µM (inactive) | 79.1 µM (inactive) | 40.5 µM (inactive) | 29.6 µM (inactive) | 34.6 µM (inactive) | > 100 µM (inactive) | 88.5 µM (inactive) | 63.7 µM (inactive) | 71.1 µM (inactive) | > 100 µM (inactive) | > 100 µM (inactive)
3 | Nc1c(F)c(F)c2c(c1F)N(CCCCCl)c1ccccc1S2 | > 100 µM (inactive) | > 100 µM (inactive) | > 100 µM (inactive) | > 100 µM (inactive) | > 100 µM (inactive) | > 100 µM (inactive) | > 100 µM (inactive) | > 100 µM (inactive) | > 100 µM (inactive) | > 100 µM (inactive) | > 100 µM (inactive) | > 100 µM (inactive) | > 100 µM (inactive) | > 100 µM (inactive) | > 100 µM (inactive) | – | > 100 µM (inactive) | > 100 µM (inactive) | > 100 µM (inactive) | > 100 µM (inactive)
4 | N#Cc1c(=O)c2ccccc2n2c1[nH]c1ccccc12 | 55.2 µM (inactive) | 29 µM (inactive) | 25.1 µM (inactive) | – | 58.6 µM (inactive) | 29.4 µM (inactive) | 54.6 µM (inactive) | 32.1 µM (inactive) | 49.5 µM (inactive) | 32.3 µM (inactive) | 34.1 µM (inactive) | 24.1 µM (inactive) | 20.9 µM (inactive) | 32.8 µM (inactive) | 20.6 µM (inactive) | 25 µM (inactive) | 30.5 µM (inactive) | 57.5 µM (inactive) | 21.3 µM (inactive) | –
5 | O=c1c(-c2ccccc2)c(SCCN2CCCC2)n(-c2ccccc2)c(=S)n1-c1ccccc1 | > 100 µM (inactive) | > 100 µM (inactive) | > 100 µM (inactive) | – | > 100 µM (inactive) | > 100 µM (inactive) | > 100 µM (inactive) | > 100 µM (inactive) | > 100 µM (inactive) | > 100 µM (inactive) | > 100 µM (inactive) | > 100 µM (inactive) | > 100 µM (inactive) | > 100 µM (inactive) | > 100 µM (inactive) | > 100 µM (inactive) | > 100 µM (inactive) | > 100 µM (inactive) | > 100 µM (inactive) | > 100 µM (inactive)
6 | c1ccc(C2=C(c3ccccc3)P(c3ccccc3)C2)cc1 (stereo unspecified) | – | 48.1 µM (inactive) | > 100 µM (inactive) | – | > 100 µM (inactive) | – | > 100 µM (inactive) | > 100 µM (inactive) | > 100 µM (inactive) | > 100 µM (inactive) | 68.1 µM (inactive) | > 100 µM (inactive) | 40.5 µM (inactive) | 41 µM (inactive) | – | – | 83.4 µM (inactive) | > 100 µM (inactive) | – | > 100 µM (inactive)
7 | CC(=O)Nn1c(=S)[nH]c2ccccc21 | > 100 µM (inactive) | > 100 µM (inactive) | > 100 µM (inactive) | > 100 µM (inactive) | > 100 µM (inactive) | > 100 µM (inactive) | > 100 µM (inactive) | – | > 100 µM (inactive) | > 100 µM (inactive) | > 100 µM (inactive) | > 100 µM (inactive) | > 100 µM (inactive) | > 100 µM (inactive) | > 100 µM (inactive) | > 100 µM (inactive) | > 100 µM (inactive) | > 100 µM (inactive) | > 100 µM (inactive) | > 100 µM (inactive)
8 | Cc1ccc(N(C(=O)Nc2ccccc2)C2=NCC(C)S2)cc1C (stereo unspecified) | 15.7 µM (inactive) | 24.4 µM (inactive) | 14 µM (inactive) | 17 µM (inactive) | 28.7 µM (inactive) | – | 18.7 µM (inactive) | 20.4 µM (inactive) | 21 µM (inactive) | 13.7 µM (inactive) | 19.3 µM (inactive) | 28.9 µM (inactive) | 23.2 µM (inactive) | 24.4 µM (inactive) | 16.6 µM (inactive) | 17.9 µM (inactive) | 16.4 µM (inactive) | 13.4 µM (inactive) | 42.7 µM (inactive) | 39.6 µM (inactive)
9 | Nc1ccc(-c2nc3ccccc3s2)cc1I | 64.9 µM (inactive) | 41.5 µM (inactive) | 28.6 µM (inactive) | 58.7 µM (inactive) | > 87.1 µM (inactive) | > 73.6 µM (inactive) | > 69.7 µM (inactive) | 77.8 µM (inactive) | 0.0521 µM (active) | 35.6 µM (inactive) | 34.4 µM (inactive) | > 7.93 µM (inactive) | > 100 µM (inactive) | 74.3 µM (inactive) | 44.8 µM (inactive) | 14.9 µM (inactive) | – | 81.8 µM (inactive) | 39.2 µM (inactive) | > 65.6 µM (inactive)
10 | Cc1onc(-c2c(F)cccc2Cl)c1C(=O)N[C@@H]1C(=O)N2[C@@H]1SC(C)(C)[C@@H]2C(=O)O | > 100 µM (inactive) | > 100 µM (inactive) | > 100 µM (inactive) | > 100 µM (inactive) | > 100 µM (inactive) | > 100 µM (inactive) | > 100 µM (inactive) | > 100 µM (inactive) | > 100 µM (inactive) | > 100 µM (inactive) | > 100 µM (inactive) | > 100 µM (inactive) | 44 µM (inactive) | > 100 µM (inactive) | – | > 100 µM (inactive) | > 100 µM (inactive) | > 100 µM (inactive) | > 100 µM (inactive) | > 100 µM (inactive)
11 | CCOC(=O)C(NC(=O)CC)(Nc1ccc(F)c(Cl)c1)C(F)(F)F (stereo unspecified) | – | > 64.1 µM (inactive) | > 100 µM (inactive) | > 67.6 µM (inactive) | > 55.8 µM (inactive) | 34.4 µM (inactive) | > 100 µM (inactive) | > 100 µM (inactive) | > 100 µM (inactive) | > 100 µM (inactive) | > 100 µM (inactive) | > 100 µM (inactive) | > 100 µM (inactive) | > 76.4 µM (inactive) | – | > 100 µM (inactive) | > 100 µM (inactive) | 40.5 µM (inactive) | > 29.2 µM (inactive) | > 100 µM (inactive)
12 | C(=N\CCCN1CCN(CCC/N=C/c2cccc3ccccc23)CC1)/c1cccc2ccccc12 | 90.8 µM (inactive) | > 100 µM (inactive) | – | > 10 µM (inactive) | > 100 µM (inactive) | 84.7 µM (inactive) | > 100 µM (inactive) | > 100 µM (inactive) | 72.1 µM (inactive) | > 100 µM (inactive) | 36.2 µM (inactive) | > 100 µM (inactive) | 18.8 µM (inactive) | 57.9 µM (inactive) | 42.5 µM (inactive) | 71.8 µM (inactive) | 27.7 µM (inactive) | 8.99 µM (inactive) | 26.4 µM (inactive) | > 100 µM (inactive)
13 | O=C(CN1CCCC1)Nc1ccc2sc3ccccc3c(=O)c2n1 | 24.2 µM (inactive) | 14.7 µM (inactive) | – | 16.5 µM (inactive) | 12.5 µM (inactive) | 19.9 µM (inactive) | 26.4 µM (inactive) | 17.1 µM (inactive) | 33 µM (inactive) | 16.4 µM (inactive) | 18.7 µM (inactive) | 34.6 µM (inactive) | 21.2 µM (inactive) | 22.6 µM (inactive) | 11 µM (inactive) | 32.7 µM (inactive) | 13.9 µM (inactive) | 24 µM (inactive) | 6.82 µM (inactive) | 20.7 µM (inactive)
14 | Cc1cn([C@H]2C=C[C@@H](CO)O2)c(=O)[nH]c1=O [STAVUDINE] | 776 µM (inactive) | > 1000 µM (inactive) | – | > 1000 µM (inactive) | > 1000 µM (inactive) | 902 µM (inactive) | > 1000 µM (inactive) | 881 µM (inactive) | 583 µM (inactive) | > 1000 µM (inactive) | > 1000 µM (inactive) | > 1000 µM (inactive) | > 1000 µM (inactive) | > 1000 µM (inactive) | > 1000 µM (inactive) | > 1000 µM (inactive) | > 1000 µM (inactive) | > 1000 µM (inactive) | > 1000 µM (inactive) | > 1000 µM (inactive)
15 | O=C1NC(=S)N/C1=C\c1cc2c(=O)c3ccccc3sc2s1 | 52.8 µM (inactive) | 72.1 µM (inactive) | > 100 µM (inactive) | > 100 µM (inactive) | 60.8 µM (inactive) | 29.4 µM (inactive) | > 100 µM (inactive) | – | 97.7 µM (inactive) | > 100 µM (inactive) | 30.7 µM (inactive) | 76 µM (inactive) | 64.6 µM (inactive) | 70.5 µM (inactive) | 59.7 µM (inactive) | 3.51 µM (inactive) | 36.4 µM (inactive) | – | 29.9 µM (inactive) | –
